Results taken from ChEMBL document CHEMBL2331144, “Synthesis and anticancer activity of analogues of phenstatin, with a phenothiazine A-ring, as a new class of microtubule-targeting agents” (Bioorg Med Chem Lett, 2013).

Assays:
NCI-H522 = test: Growth inhibition of human NCI-H522 cells after 48 hrs by sulforhodamine B assay; assay type: functional; settings: NCI-H522, 48 h
COLO 205 = test: Growth inhibition of human COLO205 cells after 48 hrs by sulforhodamine B assay; assay type: functional; settings: COLO 205, 48 h
NCI-H460 = test: Growth inhibition of human NCI-H460 cells after 48 hrs by sulforhodamine B assay; assay type: functional; settings: NCI-H460, 48 h
NCI-H23 = test: Growth inhibition of human NCI-H23 cells after 48 hrs by sulforhodamine B assay; assay type: functional; settings: NCI-H23, 48 h
HOP-62 = test: Growth inhibition of human HOP62 cells after 48 hrs by sulforhodamine B assay; assay type: functional; settings: HOP-62, 48 h
HOP-92 = test: Growth inhibition of human HOP92 cells after 48 hrs by sulforhodamine B assay; assay type: functional; settings: HOP-92, 48 h
[1] = Growth inhibition of human EKVX cells after 48 hrs by sulforhodamine B assay; assay type: functional
A549 = test: Growth inhibition of human A549/ATCC cells after 48 hrs by sulforhodamine B assay; assay type: functional; settings: A549, 48 h
SR = test: Growth inhibition of human SR cells after 48 hrs by sulforhodamine B assay; assay type: functional
RPMI-8226 = test: Growth inhibition of human RPMI8226 cells after 48 hrs by sulforhodamine B assay; assay type: functional; settings: RPMI-8226, 48 h
MOLT-4 = test: Growth inhibition of human MOLT4 cells after 48 hrs by sulforhodamine B assay; assay type: functional; settings: MOLT-4, 48 h
K562 = test: Growth inhibition of human K562 cells after 48 hrs by sulforhodamine B assay; assay type: functional; settings: K562, 48 h
HL-60(TB) = test: Growth inhibition of human HL-60(TB) cells after 48 hrs by sulforhodamine B assay; assay type: functional; settings: HL-60, 48 h
CCRF-CEM = test: Growth inhibition of human CCRF-CEM cells after 48 hrs by sulforhodamine B assay; assay type: functional
[2] = Inhibition of sheep brain tubulin polymerization using DAPI by fluorimetry; design: species or system Ovis aries
Ovis aries = species on record: Ovis aries; test: Inhibition of sheep brain tubulin polymerization at 100 uM using DAPI by fluorimetry
T47D = test: Growth inhibition of human T47D cells after 48 hrs by sulforhodamine B assay; assay type: functional
MDA-MB-468 = test: Growth inhibition of human MDA-MB-468 cells after 48 hrs by sulforhodamine B assay; assay type: functional; settings: MDA-MB-468, 48 h
BT-549 = test: Growth inhibition of human BT549 cells after 48 hrs by sulforhodamine B assay; assay type: functional; settings: BT-549, 48 h
[3] = Growth inhibition of human Hs 578T cells after 48 hrs by sulforhodamine B assay; assay type: functional
MDA-MB-231 = test: Growth inhibition of human MDA-MB-231 cells after 48 hrs by sulforhodamine B assay; assay type: functional; settings: MDA-MB-231, 48 h
MCF7 = test: Growth inhibition of human MCF7 cells after 48 hrs by sulforhodamine B assay; assay type: functional; settings: MCF7, 48 h
SF-539 = test: Growth inhibition of human SF539 cells after 48 hrs by sulforhodamine B assay; assay type: functional; settings: SF-539, 48 h
SNB-75 = test: Growth inhibition of human SNB75 cells after 48 hrs by sulforhodamine B assay; assay type: functional; settings: SNB-75, 48 h
SF-295 = test: Growth inhibition of human SF295 cells after 48 hrs by sulforhodamine B assay; assay type: functional; settings: SF-295, 48 h
SF-268 = test: Growth inhibition of human SF268 cells after 48 hrs by sulforhodamine B assay; assay type: functional; settings: SF-268, 48 h
PC-3 = test: Growth inhibition of human PC3 cells after 48 hrs by sulforhodamine B assay; assay type: functional; settings: PC-3, 48 h
TK-10 = test: Growth inhibition of human TK10 cells after 48 hrs by sulforhodamine B assay; assay type: functional; settings: TK-10, 48 h
DU-145 = test: Growth inhibition of human DU145 cells after 48 hrs by sulforhodamine B assay; assay type: functional; settings: DU-145, 48 h
ACHN = test: Growth inhibition of human ACHN cells after 48 hrs by sulforhodamine B assay; assay type: functional
786-0 = test: Growth inhibition of human 786-0 cells after 48 hrs by sulforhodamine B assay; assay type: functional; settings: 786-0, 48 h
UO-31 = test: Growth inhibition of human UO31 cells after 48 hrs by sulforhodamine B assay; assay type: functional; settings: UO-31, 48 h
RXF 393 = test: Growth inhibition of human RXF393 cells after 48 hrs by sulforhodamine B assay; assay type: functional; settings: RXF 393, 48 h
SN12C = test: Growth inhibition of human SN12C cells after 48 hrs by sulforhodamine B assay; assay type: functional
CAKI-1 = test: Growth inhibition of human CAKI-1 cells after 48 hrs by sulforhodamine B assay; assay type: functional; settings: CAKI-1, 48 h
A498 = test: Growth inhibition of human A498 cells after 48 hrs by sulforhodamine B assay; assay type: functional; settings: A498, 48 h
IGROV-1 = test: Growth inhibition of human IGROV1 cells after 48 hrs by sulforhodamine B assay; assay type: functional; settings: IGROV-1, 48 h
SK-OV-3 = test: Growth inhibition of human SKOV3 cells after 48 hrs by sulforhodamine B assay; assay type: functional; settings: SK-OV-3, 48 h
[4] = Growth inhibition of human NCI-ADR-RES cells after 48 hrs by sulforhodamine B assay; assay type: functional
OVCAR-8 = test: Growth inhibition of human OVCAR8 cells after 48 hrs by sulforhodamine B assay; assay type: functional; settings: OVCAR-8, 48 h
OVCAR-5 = test: Growth inhibition of human OVCAR5 cells after 48 hrs by sulforhodamine B assay; assay type: functional; settings: OVCAR-5, 48 h
OVCAR-4 = test: Growth inhibition of human OVCAR4 cells after 48 hrs by sulforhodamine B assay; assay type: functional; settings: OVCAR-4, 48 h
OVCAR-3 = test: Growth inhibition of human OVCAR3 cells after 48 hrs by sulforhodamine B assay; assay type: functional; settings: OVCAR-3, 48 h
SK-MEL-5 = test: Growth inhibition of human SK-MEL-5 cells after 48 hrs by sulforhodamine B assay; assay type: functional; settings: SK-MEL-5, 48 h
UACC-257 = test: Growth inhibition of human UACC257 cells after 48 hrs by sulforhodamine B assay; assay type: functional; settings: UACC-257, 48 h
Malme-3M = test: Growth inhibition of human MALME-3M cells after 48 hrs by sulforhodamine B assay; assay type: functional
LOX IMVI = test: Growth inhibition of human LOXIMVI cells after 48 hrs by sulforhodamine B assay; assay type: functional
UACC-62 = test: Growth inhibition of human UACC62 cells after 48 hrs by sulforhodamine B assay; assay type: functional; settings: UACC-62, 48 h
SK-MEL-28 = test: Growth inhibition of human SK-MEL-28 cells after 48 hrs by sulforhodamine B assay; assay type: functional; settings: SK-MEL-28, 48 h
SK-MEL-2 = test: Growth inhibition of human SK-MEL-2 cells after 48 hrs by sulforhodamine B assay; assay type: functional; settings: SK-MEL-2, 48 h
MDA-MB-435 = test: Growth inhibition of human MDA-MB-435 cells after 48 hrs by sulforhodamine B assay; assay type: functional; settings: MDA-MB-435, 48 h
M14 = test: Growth inhibition of human M14 cells after 48 hrs by sulforhodamine B assay; assay type: functional; settings: M14, 48 h
SW-620 = test: Growth inhibition of human SW620 cells after 48 hrs by sulforhodamine B assay; assay type: functional; settings: SW-620, 48 h
KM12 = test: Growth inhibition of human KM12 cells after 48 hrs by sulforhodamine B assay; assay type: functional; settings: KM12, 48 h
HT-29 = test: Growth inhibition of human HT-29 cells after 48 hrs by sulforhodamine B assay; assay type: functional; settings: HT-29, 48 h
HCT-116 = test: Growth inhibition of human HCT116 cells after 48 hrs by sulforhodamine B assay; assay type: functional; settings: HCT-116, 48 h
HCT-15 = test: Growth inhibition of human HCT15 cells after 48 hrs by sulforhodamine B assay; assay type: functional; settings: HCT-15, 48 h
[5] = Growth inhibition of human HCC2998 cells after 48 hrs by sulforhodamine B assay; assay type: functional; settings: HCC 2998, 48 h

SMILES: O=C(c1ccc2c(c1)Sc1ccccc1N2)c1c[nH]c2ccccc12
- GI50 (NCI-H522): 248 nM
- GI50 (COLO 205): 435 nM
- GI50 (NCI-H460): 429 nM
- GI50 (NCI-H23): 943 nM
- GI50 (HOP-62): 670 nM
- GI50 (HOP-92): 970 nM
- GI50 [1]: 11600 nM
- GI50 (A549): 634 nM
- GI50 (SR): 382 nM
- GI50 (RPMI-8226): 761 nM
- GI50 (MOLT-4): 3750 nM
- GI50 (K562): 395 nM
- GI50 (HL-60(TB)): 382 nM
- GI50 (CCRF-CEM): 380 nM
- IC50 [2]: 38900 nM
- inhibition (Ovis aries): 66%
- GI50 (T47D): 502 nM
- GI50 (MDA-MB-468): 314 nM
- GI50 (BT-549): 398 nM
- GI50 [3]: 702 nM
- GI50 (MDA-MB-231): 1110 nM
- GI50 (MCF7): 293 nM
- GI50 (SF-539): 576 nM
- GI50 (SNB-75): 326 nM
- GI50 (SF-295): 323 nM
- GI50 (SF-268): 1500 nM
- GI50 (PC-3): 654 nM
- GI50 (TK-10): 2140 nM
- GI50 (DU-145): 1420 nM
- GI50 (ACHN): 1780 nM
- GI50 (786-0): 1900 nM
- GI50 (UO-31): 1030 nM
- GI50 (RXF 393): 1270 nM
- GI50 (SN12C): 888 nM
- GI50 (CAKI-1): 462 nM
- GI50 (A498): 251 nM
- GI50 (IGROV-1): 620 nM
- GI50 (SK-OV-3): 533 nM
- GI50 [4]: 247 nM
- GI50 (OVCAR-8): 1040 nM
- GI50 (OVCAR-5): 1750 nM
- GI50 (OVCAR-4): 16500 nM
- GI50 (OVCAR-3): 404 nM
- GI50 (SK-MEL-5): 408 nM
- GI50 (UACC-257): 581 nM
- GI50 (Malme-3M): 997 nM
- GI50 (LOX IMVI): 446 nM
- GI50 (UACC-62): 532 nM
- GI50 (SK-MEL-28): 647 nM
- GI50 (SK-MEL-2): 397 nM
- GI50 (MDA-MB-435): 112 nM
- GI50 (M14): 372 nM
- GI50 (SW-620): 406 nM
- GI50 (KM12): 365 nM
- GI50 (HT-29): 368 nM
- GI50 (HCT-116): 404 nM
- GI50 (HCT-15): 489 nM
- GI50 [5]: 976 nM
